The source of these data is patent publication US20230102836A1, “Amoebicidal Compositions for Contact Lens Solutions” (University of the West of Scotland, priority 2019, published 2023).

Converted amounts (≈) assume the structure as drawn. “And” between values parts separate entries of the source, which are not always exact repeats. Equal values may be shown once. Marks after values point to notes of the source that are not given here.

The test system of data set [1] is A. castellanii trophozoites. Description: Cytotoxicity assay on trophozoites (resazurin / alamarBlue). It counts as cell-based, Acanthamoeba castellanii ATCC 50370. Particulars: for IC50: Acanthamoeba castellanii. The procedure: Acanthamoeba castellanii ATCC 50370 trophozoites and cysts were cultured in Peptone Glucose (PG) medium and encystment medium (Chagla A H, Griffiths A J (1974) Microbiology: 85(1): 139-145) respectively at 25° C. Cysts were prepared by incubating trophozoites for 8 days in encystment medium and integrity validated with calcofluor (0.25 μg/ml) assay (Gatti S et al (2010) J. Med. Microbiol.; 59: 1324-1330) or sodium dodecyl sulfate (SDS, 0.5% w/v) disintegration assay (Dudley R et al (2005) Acta Trop.; 9: 100-8) and microscopic observation.
The compounds used in this study all contained alkyl-carbon chains: three APCs [dodecyl-PC (APC12), tetradecyl-PC. (APC14) and hexadecyl-PC (APC16)] (Anatrace) and four QACs [docdecyl-TMAB (QAC12), tetradecyl-TMAB (QAC14), hexadecyl-TMAB (QAC16) and octadecyl-TMAB (QAC18)](Sigma). All were prepared to a stock concentration of 1 mg/ml and diluted as required by the experimental protocol in the cytotoxicity assays. […]
[…] Resazurin (7-Hydroxy-31-phenoxazin-3-one 10-oxide; 5 mg/ml; McBride J et al (2005) J. Clin. Microbiol.; 43: 629-634) and trypan blue (0.4 μg/ml; Mafra C S P et al (2013) Investig. Ophthalmol. Vis. Si.; 54: 6363-6372) were then added to trophozoites and cysts respectively after being exposed to the compounds and the cell viability estimated microscopically and from changes in absorbance (at 595 nm and 570 nm) respectively.
Efficacy was expressed as a percentage of untreated controls for each drug concentration used and the data used to calculate the IC50. Cell density was estimated using the modified Neubaur hemocytometer and expressed as cells/ml.

For data set [2] the following is noted: APCs; cited from earlier work.
Data set [3] relates to A. castellanii trophozoites. The experiment in a line: Combined assay with fixed QAC12 (alamarBlue). In kind it is cell-based, Acanthamoeba castellanii ATCC 50370. Particulars: for IC50: Acanthamoeba castellanii, 96 h, 96 h at 25° C. As to the method: Acanthamoeba trophozoites (10^5 cells/ml. n=5/treatment) treated with 100 μg/ml doubly diluted to 0.06 μg/ml of QAC18 (a,b) or APC16 (c,d) for 96 h at 25° C. […] Similarly. APC16 alone at the same concentration (closed circle, FIG. 6C, FIG. 6D) in combination with QAC12 at 18.75 μg/ml (open squares, d) QAC12 at […] (open squares, FIG. 6C). Data are mean absorbance at 595 nm t SD; n=4 independent experiments performed in triplicates. IC50s were not statistically significant between QAC12 at both concentrations and QAC16 (p>0.05, FIG. 6A, FIG. 6B) but significant with APC16 (p<0.05, FIG. 6C, FIG. 6D).
For the combined assay, similar concentrations of QAC18 and APC16 were prepared and 18.75 μg/ml and 37.5 μg/ml of QAC12 added (to a final volume of 100 μl) were added to 10^5 cells/mi in a 96-well plate and later incubated at 25° C. for a duration determined by the experimental protocol. Resazurin (7-Hydroxy-31-phenoxazin-3-one 10-oxide; 5 mg/ml; McBride J et al (2005) J. Clin. Microbiol.; 43: 629-634) and trypan blue (0.4 μg/ml; Mafra C S P et al (2013) Investig. Ophthalmol. Vis. Si.; 54: 6363-6372) were then added to trophozoites and cysts respectively after being exposed to the compounds and the cell viability estimated microscopically and from changes in absorbance (at 595 nm and 570 nm) respectively.

Data set [4] has as its system A. castellanii trophozoites. The experiment in a line: Drug wash-out / alamarBlue-reversion assay, trophozoites. It counts as cell-based, Acanthamoeba castellanii ATCC 50370. Particulars: 12.5 μg/ml to 100 μg/ml after 96 h.
Data set [5] concerns A. castellanii trophozoites. Description: Morphometric analysis of trophozoites. In kind it is cell-based, Acanthamoeba castellanii ATCC 50370. The procedure:
Acanthamoeba trophozoites ([…]) incubated without (FIG. 2A), with QAC18 at 37.5 μg/ml for 1 h at 25° C. (FIG. 2B), and 0.5% SDS for 30 min (FIG. 2C). QAC18 reduced trophozoites sizes from 29.02±0.23 (FIG. 2A) to 7.87 f 0.93 (FIG. 2B) which disintegrated after 30 min treatment with SDS (FIG. 2C).
A. castellanii trophozoites incubated with and without QAC for a duration determined by experimental protocol were examined microscopically and their sizes measured using the Open Laboratory (Improvision) calibration graticule. The mean body sizes were determined.

[6] abbreviates: Table 4, read-out: IC50 against Acanthamoeba spp.
Where [7] appears, read: Table 5, 72 h and 96 h at 26° C., alamar blue, read-out: IC50 Acanthamoeba trophozoites.

Turning to “10-Undecylenyl-1-phosphocholine [APC11UPC]”, in data set [1], the “Increase in activity relative to saturated counterpart APC12” value is 3 fold. Also, the “IC50 against Acanthamoeba spp” value in data set [1] (Table 4) amounted to 3.1 ± 0.4 µg/mL.

On to `CCCCCCCCOP(=O)([O-])OCC[N+](C)(C)C` [APC8, Octylphosphocholine], for which, in data set [1] (setting [6]), the IC50 worked out at 46.4 ± 2.3 µg/mL (≈ 157 µM).

For `CCCCCCCCCCOP(=O)([O-])OCC[N+](C)(C)C` [APC10, Decylphosphocholine], the IC50 in data set [1] (setting [6]) was 58 ± 0.9 µg/mL (≈ 179 µM).

Consider `CC(C)CCC(CCC(C)C)OP(=O)([O-])OCC[N+](C)(C)C` [APC11PC, 2,8-Dimethyl-5-Nonylphosphocholine], for which the IC50 in data set [1] (setting [6]) was > 37.5 µg/mL.

For `CCCCCCCCCCCCOP(=O)([O-])OCC[N+](C)(C)C` [APC12, Dodecylphosphocholine], the IC50 in data set [1] (setting [7]) is 22.9 µg/mL and 65.2 µM. In addition, the CMC value in data set [2] is given as 1000.00* μM.

As for `CCCCCCCCCCCCCCOP(=O)([O-])OCC[N+](C)(C)C` [APC14, Tetradecylphosphocholine], the IC50 is 8.9 ± 0.2 µg/mL (≈ 23.5 µM) in data set [1] (setting [6]); 8.9 µg/mL and 23.4 µM in data set [1] (setting [7]). Besides, the CMC value in data set [2] is 120.00* μM.

Take `CCCCCCCCCCCCCCCCOP(=O)([O-])OCC[N+](C)(C)C` [APC16, Hexadecylphosphocholine]: the IC50 is 7.9 ± 0.3 µg/mL (≈ 19.4 µM) in data set [1] (setting [6]); 7.9 µg/mL and 19.4 µM in data set [1] (setting [7]); 3.4 µg/mL in data set [3] (QAC12 at 18.75 μg/ml, read-out: Estimated IC50 of APC16 with QAC12); 2.5 µg/mL in data set [3] (QAC12 at 37.5 μg/ml, read-out: Estimated IC50 of APC16 with QAC12); 7.6 µg/mL in data set [3] (without QAC12, read-out: IC50 of APC16 only control). For the same compound, the CMC value in data set [2] is 13.00* μM. Further, the “Effect after drug wash-out (inability to oxidise resazurin)” value in data set [3] (APC16 at 3.12, 4.68, 6.25 and 9.36 μg/ml combined with QAC12, not alone) is recorded as “cytotoxic”. In addition, in data set [4], the “Effect after APC16 wash-out and incubation in PG medium” value was “amoebostatic”. Moreover, in data set [5], the “Reduction in trophozoite size relative to untreated” value amounted to 4 fold.

Consider `CCCCCCCCCCCCCCCCCCOP(=O)([O-])OCC[N+](C)(C)C` [APC18, Octadecylphosphocholine], for which the IC50 in data set [1] (setting [6]) is 3 ± 0.3 µg/mL (≈ 6.89 µM).

Regarding `CCCCCCCCCCCC[N+](C)(C)CCCCCCCCCCCC.[Br-]` [DAB, Didodecyldimethyl ammonium bromide], the IC50 in data set [1] (setting [6]) is 27 ± 2.2 µg/mL.
